# Test results as given in US6350743B1, “Cytotoxic pyridoacridine alkaloids” (Instituto Biomar, S.A., priority 1997, dated 2002).
# Assays:
# Type in all cases: cell-based
# [1] = test system: HT-29 (monolayer culture of a human colon carcinoma); assay: Antitumor screening, HT-29 cell growth (Crystal Violet); settings: 72 h, HT-29 cells, three days of incubation, approximate IC50
# Procedure: (§1) Cells were maintained in logarithmic phase of growth in Eagle's Minimum Essential Medium, with Earle's Balanced Salts, with 2.0 mM L-glutamine, with non-essential amino acids, without sodium bicarbonate (EMEM/neaa); supplemented with 10% Fetal Calf Serum (FCS), 10^−2 M sodium bicarbonate and 0.1 g/l penicillin+G streptomycin sulfate.
# (§2) A screening procedure has been carried out to determine and compare the antitumor activity of these compounds, using an adapted form of the method described by Bergeron et al. (Reference 15: Raymond J. Bergeron, Paul F. Cavanaugh, Jr., Steven J. Kline, Robert G. Hughes, Jr., Gary T. Elliot and Carl W. Porter. Antineoplastic and antiherpetic activity of spermidine catecholamide iron chelators. Biochem. Bioph. Res. Comm. 1984, 121, 848-854). The antitumor cells employed were P-388 (suspension culture of a lymphoid neoplasm from DBA/2 mouse), A-549 (monolayer culture of a human lung carcinoma), HT-29 (monolayer culture of a human colon carcinoma) and MEL-28 (monolayer culture of a human melanoma).
# (§3) A-549, HT-29 cells were seeded into 16 mm wells at 2×10^4 cells per well in 1 ml aliquots of MEM 10FCS containing the indicated concentration of drug. […] An approximately IC50 was determined by comparing the growth in wells with drug to the growth in wells control.
# [2] = test system: P-388 (suspension culture of a lymphoid neoplasm from DBA/2 mouse); assay: Antitumor screening, P-388 cell growth; settings: P388, 72 h, P-388 cells, three days of incubation, approximate IC50 vs control growth
# Procedure: as §1, §2
# P-388 cells were seeded into 16 mm wells at 1×10^4 cells per well in 1 ml aliquots of MEM 5FCS containing the indicated concentration of drug. A separate set of cultures without drug was seeded as control growth to ensure that cells remained in exponential phase of growth. All determinations were carried out in duplicate. […]
# [3] = test system: A-549 (monolayer culture of a human lung carcinoma); assay: Antitumor screening, A-549 cell growth (Crystal Violet); settings: A549, 72 h, A-549 cells, three days of incubation, approximate IC50
# Procedure: as §1, §2, §3
# [4] = test system: MEL-28 (monolayer culture of a human melanoma); assay: Antitumor screening, MEL-28 cell growth; settings: SK-MEL-28, MEL-28 cells, approximate IC50
# Procedure: as §1, §2, §3
smiles,measurement,setting,value
CN(C)CCc1c2c(c3nccc4c3c1Nc1ccccc1-4)NC(=O)CS2 [Shermilamine D],IC50,[1],2660 nM
same,IC50,[2],1330 nM
same,IC50,[3],270 nM
same,IC50,[4],530 nM
